This note sets out measurements from US9120775B2, “Viral polymerase inhibitors” (Biota Scientific Management Pty Ltd, priority 2012, dated 2015).

Data set [1] is described as follows: Aqueous solubility (laser nephelometry). The data set is classed as physicochemical. As to conditions: aqueous assay buffer pH 6.5 with 1% DMSO, aqueous buffer, kinetic from dmso stock, pH 6.5, 1% DMSO, 30 minute incubation at 25° C. As to the method: Test compounds prepared in DMSO were screened in duplicate over a range of concentrations (1.6-100 ug/mL) in different aqueous media (for example a pH6.5 buffers which are relevant to the stomach and upper regions of the small intestine and therefore important when predicting the amount of drug likely to be in solution following oral administration). Test compounds were serially diluted in 100% DMSO ranging from 10-0.16 mg/mL. These titrated DMSO stocks were then further diluted 1:100 with assay buffer and added to test plates (UV Star Griener 384 well plates), maintaining the DMSO concentration at 1%.

A further data set deals with T1, 1b (BK) NS5BΔ21 (Hepatitis C virus genotype 1b, UniProt P26663).
T1 construct: 100 nM 1b (BK) NS5BΔ21
As to the kind of experiment: HCV polymerase inhibition assay. The data set is classed as biochemical. As to the method: HCV polymerase reactions were carried out using a modified method of Howe et al., Antimicrobial Agents and Chemotherapy 2004 48(12): 4813-4821. Reactions contained a final concentration of, 0.5% DMSO, 100 nM 1b (BK) NS5BΔ21, 20 mM Tris-HCl pH 7.5, 5 mM MgCl2, 5 mM MnCl2, 3 mM DTT, 0.05% BSA, 0.2 U/μL RNasin, 10 μg/mL Poly(rC) template, GTP (at Km) and 0.05 μCi/μL ^33P-GTP in a total reaction volume of 50 μL. Compounds were tested in a three fold dilution series, for example starting from 50 μM. Reactions were initiated with the addition of GTP and terminated after […] with 50 μL ice cold 0.2 M EDTA. Terminated reactions were transferred to DEAE 96-well filter plates, unincorporated nucleotides washed from the filters and 50 μL scintillation fluid added prior to reading on a scintillation counter. The compound concentration that reduced ^33P-GTP incorporation by 50% (IC50) was calculated using non-linear regression.

For data set [2], the system named is genotype 1b (Con 1) subgenomic replicon cell line. As to the kind of experiment: HCV replicon assay, genotype 1b, Renilla luciferase reporter. In kind it is cell-based. As to conditions: Hepatitis C virus; 72 hours incubation, Renilla luciferase activity. As to the method:
A genotype 1b (Con 1) subgenomic replicon cell line based on Blight et al., Science 2000 290: 1972-1974, modified to express a Renilla luciferase reporter gene was used to assess antiviral activity of test compounds. Cell cultures were maintained in a sub-confluent state in DMEM with glutamine, 10% heat-inactivated foetal bovine serum (FBS) and G418 (Geneticin®).
For assay, cells were seeded at a density of 7000 cells/well into 96 well tissue culture trays in culture media lacking G418. Compounds were tested in a three fold dilution series, for example starting from 50 uM. After 72 hours incubation at 37° C. and 5% CO2, Renilla luciferase activity was quantified via the Promega Renilla Luciferase or Renilla-Glo™ Luciferase Assay Systems (Promega corporation. The same method was employed for replicon assays using subgenomic genotype 1a (H77) and 2a (JFH-1) replicon cell lines with a seeding cell density of 5000 cells/well for the 2a cell lines.
The compound concentration that reduced luciferase activity by 50% (EC50) was calculated using non-linear regression.

Setting [3] is: read-out: solubility ranges at pH 6.5.

In general, solubility refers to the dissolved amount per volume that the medium holds. The IC50 is the concentration that inhibits the measured activity by half. Low readings indicate greater potency, high ones weaker potency. As usually defined, the EC50 is the midpoint of the concentration-response curve.

Molecules are shown by their SMILES. Converted amounts (≈) assume the structure as drawn. Like-named read-outs stand apart in the source and are kept apart here.

T1 sequence (P26663 2420-2989, stated change not applied): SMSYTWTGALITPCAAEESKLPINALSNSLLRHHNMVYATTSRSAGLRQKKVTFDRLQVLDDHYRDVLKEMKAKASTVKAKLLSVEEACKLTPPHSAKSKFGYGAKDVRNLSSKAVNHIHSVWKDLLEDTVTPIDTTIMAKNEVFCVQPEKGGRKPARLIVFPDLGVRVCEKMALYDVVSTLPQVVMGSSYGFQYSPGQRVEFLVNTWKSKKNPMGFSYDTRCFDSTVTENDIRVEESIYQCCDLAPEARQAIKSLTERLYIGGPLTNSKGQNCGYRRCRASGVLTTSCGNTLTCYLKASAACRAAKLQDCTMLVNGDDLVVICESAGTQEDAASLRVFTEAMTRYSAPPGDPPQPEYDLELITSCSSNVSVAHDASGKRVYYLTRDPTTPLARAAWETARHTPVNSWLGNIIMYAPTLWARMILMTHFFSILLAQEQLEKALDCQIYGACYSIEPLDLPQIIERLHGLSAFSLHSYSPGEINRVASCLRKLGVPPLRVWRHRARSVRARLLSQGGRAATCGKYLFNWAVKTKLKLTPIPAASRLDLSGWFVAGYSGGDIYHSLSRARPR

For the molecule `CNC(=O)c1c2cc(C3CC3)c(N(CC3CCC3)S(C)(=O)=O)cc2nn1-c1ccc(Cl)cc1` [A, reference compound], the solubility at 30 min in data set [1] (read-out: Solubility at pH 6.5) was in the range of 1.6 to 3.1 µg/mL (≈ 3.29 to 6.37 µM).
On to `CNC(=O)c1c2cc(C3CC3)c(N(CC3CC3)S(C)(=O)=O)cc2nn1-c1ccc(Cl)cc1` [B, reference compound], for which the solubility at 30 min in data set [1] (read-out: Solubility at pH 6.5) lay within 3.1 to 6.3 µg/mL (≈ 6.55 to 13.3 µM).
Still for that read-out and setting: to `CNC(=O)c1c2cc(C3CC3)c(N(CC3CCOC3)S(C)(=O)=O)cc2nn1-c1ccc(Cl)cc1` (stereo not drawn) [C, reference compound] belongs below 1.6 µg/mL.
As to `CNC(=O)c1c2cc(C3CC3)c(N(CCCC3CCO3)S(C)(=O)=O)cc2nn1-c1ccc(Cl)cc1` (stereo not drawn) [Compound 4, 2-(4-chlorophenyl)-5-cyclopropyl-N-methyl-6-{(methylsulfonyl)[3-(oxetan-2-yl)propyl]amino}-2H-indazole-3-carboxamide], the half-inhibitory concentration (IC50) against 1b (BK) NS5BΔ21 is below 100 nM. The same molecule yielded an EC50 in data set [2] below 100 nM.
Turning to `CNC(=O)c1c2cc(C3CC3)c(N(CCC3COC3)S(C)(=O)=O)cc2nn1-c1ccc(C)cn1` [Compound 5, 5-cyclopropyl-N-methyl-2-(5-methylpyridin-2-yl)-6-{(methylsulfonyl)[2-(oxetan-3-yl)ethyl]amino}-2H-indazole-3-carboxamide], the concentration for half-maximal inhibition (IC50) against 1b (BK) NS5BΔ21 lay within 500 to 990 nM.
As to `CNC(=O)c1c2cc(C3CC3)c(N(CCC3CNC3)S(C)(=O)=O)cc2nn1-c1ccc(Cl)cc1` [Compound 6, 6-{[2-(Azetidin-3-yl)ethyl](methylsulfonyl)amino}-2-(4-chlorophenyl)-5-cyclopropyl-N-methyl-2H-indazole-3-carboxamide], on 1b (BK) NS5BΔ21, the IC50 lay in the range of 100 to 490 nM. In addition, the EC50 in data set [2] lay in the range of 1000 to 10000 nM.
The like results for `CNC(=O)c1c2cc(C3CC3)c(N(CCC3CN(C)C3)S(C)(=O)=O)cc2nn1-c1ccc(Cl)cc1` [Compound 7, 2-(4-chlorophenyl)-5-cyclopropyl-N-methyl-6-{[2-(1-methylazetidin-3-yl)ethyl](methylsulfonyl)amino}-2H-indazole-3-carboxamide] were, in that order, 100 to 490 nM and 100 to 490 nM.
As to `CNC(=O)c1c2cc(C3CC3)c(N(CCC3COC3C)S(C)(=O)=O)cc2nn1-c1ccc(Cl)cc1` (stereo not drawn) [Compound 9, 2-(4-Chlorophenyl)-5-cyclopropyl-N-methyl-6-[{2[-2-methyloxetan-3-yl]ethyl}(methylsulfonyl)amino]-2H-indazole-3-carboxamide], in data set [1] (setting [3]), the solubility at 30 min fell in the range of 25 to 50 µg/mL (≈ 48.4 to 96.7 µM).
On to `CNC(=O)c1c2cc(C3CC3)c(N(CCC3COC3)S(C)(=O)=O)cc2nn1-c1ccc(Cl)cc1` [Compound 10, 2-(4-chlorophenyl)-5-cyclopropyl-N-methyl-6-{(methylsulfonyl)[2-(oxetan-3-yl)ethyl]amino}-2H-indazole-3-carboxamide], for which, at 1b (BK) NS5BΔ21, the 50% inhibitory concentration (IC50) was below 100 nM. Moreover, the EC50 in data set [2] is below 100 nM.
Turning to `CNC(=O)c1c2cc(C3CC3)c(N(CCC3(C)COC3)S(C)(=O)=O)cc2nn1-c1ccc(Cl)cc1` [Compound 11, 2-(4-chlorophenyl)-5-cyclopropyl-N-methyl-6-{[2-(3-methyloxetan-3-yl)ethyl](methylsulfonyl)amino}-2H-indazole-3-carboxamide], the IC50 against 1b (BK) NS5BΔ21 was below 100 nM. The molecule also had a 50% effective concentration (EC50) in data set [2] below 100 nM.
In turn, `CNC(=O)c1c2cc(C3CC3)c(N(CC3(C)COC3)S(C)(=O)=O)cc2nn1-c1ccc(Cl)cc1` [Compound 12, 2-(4-chlorophenyl)-5-cyclopropyl-N-methyl-6-{[(3-methyloxetan-3-yl)methyl](methylsulfonyl)amino}-2H-indazole-3-carboxamide] gave an IC50 at 1b (BK) NS5BΔ21 of 1000 to 10000 nM. This molecule also came in with a concentration giving a half-maximal response (EC50) in data set [2] of 1000 to 10000 nM.
The molecule `CNC(=O)c1c2cc(C3CC3)c(N(CCC3CCO3)S(C)(=O)=O)cc2nn1-c1ccc(Cl)cc1` (stereo not drawn) [Compound 13, 2-(4-chlorophenyl)-5-cyclopropyl-N-methyl-6-{(methylsulfonyl)[2-(oxetan-2-yl)ethyl]amino}-2H-indazole-3-carboxamide] showed an IC50 on 1b (BK) NS5BΔ21 of 100 to 490 nM. For the same molecule, the half-maximal effective concentration (EC50) in data set [2] is below 100 nM.
On to `CNC(=O)c1c2cc(C3CC3)c(N(CC(C)C3COC3)S(C)(=O)=O)cc2nn1-c1ccc(Cl)cc1` (stereo not drawn) [Compound 15, 2-(4-chlorophenyl)-5-cyclopropyl-N-methyl-6-{(methylsulfonyl) [2-(oxetan-3-yl)propyl]amino}-2H-indazole-3-carboxamide], for which, at 1b (BK) NS5BΔ21, the IC50 was 100 to 490 nM. The same molecule had an EC50 in data set [2] of 500 to 990 nM.
With `CNC(=O)c1c2cc(C3CC3)c(N(CCC3(C(C)C)COC3)S(C)(=O)=O)cc2nn1-c1ccc(Cl)cc1` [Compound 16, 2-(4-chlorophenyl)-5-cyclopropyl-N-methyl-6-[(methylsulfonyl) {2-[3-(propan-2-yl)oxetan-3-yl]ethyl}amino]-2H-indazole-3-carboxamide], the IC50 at 1b (BK) NS5BΔ21 is below 100 nM. In addition, in data set [2], the EC50 was below 100 nM.
On to `CNC(=O)c1c2cc(C3CC3)c(N(CCC3CN(C(=O)OC(C)(C)C)C3)S(C)(=O)=O)cc2nn1-c1ccc(Cl)cc1` [Compound 19, tert-butyl 3-(2-{[2-(4-chlorophenyl)-5-cyclopropyl-3-(methylcarbamoyl)-2H-indazol-6-yl](methylsulfonyl)amino}ethyl)azetidine-1-carboxylate], for which the IC50 against 1b (BK) NS5BΔ21 is 100 to 490 nM. The EC50 in data set [2] is below 100 nM.
Consider `CNC(=O)c1c2cc(C3CC3)c(N(CCC3COC3C)S(C)(=O)=O)cc2nn1-c1ccc(C)cn1` (stereo not drawn) [Compound 20, 5-cyclopropyl-N-methyl-6-{[2-(2-methyloxetan-3-yl)ethyl](methylsulfonyl)amino}-2-(5-methylpyridin-2-yl)-2H-indazole-3-carboxamide], for which the solubility at 30 min in data set [1] (setting [3]) was in the range of 12.5 to 25 µg/mL (≈ 25.1 to 50.2 µM).
The same measure, in the same setting: to `CNC(=O)c1c2cc(C3CC3)c(N(CCC3(C)COC3)S(C)(=O)=O)cc2nn1-c1ccc(C)cn1` [Compound 21, 5-cyclopropyl-N-methyl-6-{[2-(3-methyloxetan-3-yl)ethyl](methylsulfonyl)amino}-2-(5-methylpyridin-2-yl)-2H-indazole-3-carboxamide] belongs above 100 µg/mL.
With `CNC(=O)c1c2cc(C3CC3)c(N(CCN3CC(O)C3)S(C)(=O)=O)cc2nn1-c1ccc(Cl)cc1` [Compound 22, 2-(4-chlorophenyl)-5-cyclopropyl-6-[2-(3-hydroxyazetidin-1-yl)ethyl-methylsulfonyl-amino]-N-methyl-indazole-3-carboxamide], at 1b (BK) NS5BΔ21, the IC50 is 500 to 990 nM. In data set [2], the EC50 is 100 to 490 nM.
For `CNC(=O)c1c2cc(C3CC3)c(N(CCC3CN(C(=O)OC(C)(C)C)C3)S(C)(=O)=O)cc2nn1-c1ccc(C)cn1` [Compound 24, tert-butyl 3-[2-[[5-cyclopropyl-3-(methylcarbamoyl)-2-(5-methyl-2-pyridyl)indazol-6-yl]-methylsulfonyl-amino]ethyl]azetidine-1-carboxylate], the solubility at 30 min in data set [1] (setting [3]) fell in the range of 12.5 to 25 µg/mL (≈ 21.5 to 42.9 µM).
As for `CNC(=O)c1c2cc(C3CC3)c(N(CCC3(OC)CN(C(=O)OC(C)(C)C)C3)S(C)(=O)=O)cc2nn1-c1ccc(Cl)cc1` [Compound 27, tert-butyl 3-[2-[[2-(4-chlorophenyl)-5-cyclopropyl-3-(methylcarbamoyl)indazol-6-yl]-methylsulfonyl-amino]ethyl]-3-methoxy-azetidine-1-carboxylate], on 1b (BK) NS5BΔ21, the IC50 was in the range of 500 to 990 nM. The concentration for a half-maximal effect (EC50) in data set [2] was below 100 nM.
For the molecule `CNC(=O)c1c2cc(C3CC3)c(N(CCC3(OC)COC3)S(C)(=O)=O)cc2nn1-c1ccc(C)cn1` [Compound 28, 5-cyclopropyl-6-[2-(3-methoxyoxetan-3-yl)ethyl-methylsulfonyl-amino]-N-methyl-2-(5-methyl-2-pyridyl)indazole-3-carboxamide], in data set [1] (setting [3]), the solubility at 30 min was in the range of 50 to 100 µg/mL (≈ 97.3 to 195 µM).
The molecule `CNC(=O)c1c2cc(C3CC3)c(N(CCC3COC3C)S(C)(=O)=O)cc2nn1-c1ccc(Cl)cc1` (stereo not drawn) [Compound 31, 2-(4-chlorophenyl)-5-cyclopropyl-N-methyl-6-[2-[-2-methyloxetan-3-yl]ethyl-methylsulfonyl-amino]indazole-3-carboxamide] displayed a half-inhibitory concentration (IC50) against 1b (BK) NS5BΔ21 of 100 to 490 nM. For the same molecule, in data set [2], the concentration for a half-maximal effect (EC50) is below 100 nM.
With `CNC(=O)c1c2cc(C3CC3)c(N(CCC3CCOCC3)S(C)(=O)=O)cc2nn1-c1ccc(Cl)cc1` [D, reference compound], the solubility at 30 min in data set [1] (read-out: Solubility at pH 6.5) was below 1.6 µg/mL.
